Measurements: patent publication US20020037858A1, “Pharmaceutical compositions comprising moexipril magnesium” (priority 2000, published 2002)

Assay: Stability of moexipril magnesium salt in solid compositions
Assay type: physicochemical
Settings: solid compositions without an alkaline stabilizing compound in the final composition

Q: For `CCOC(=O)[C@H](CCc1ccccc1)N[C@@H](C)C(=O)N1Cc2cc(OC)c(OC)cc2C[C@H]1C(=O)O.[Mg]` [moexipril magnesium], which “stability of the salt” value is on record?
A: sufficiently stable to enable stable solid compositions
